Experimental data from patent publication US20210278408A1, “METHODS OF TREATMENT OF CANCER WITH SUBSTITUTED PYRROLE AND PYRAZOLE COMPOUNDS AND DIAGNOSIS OF CANCERS SUSCEPTIBLE TO TREATMENT WITH SUBSTITUTED PYRROLE AND PYRAZOLE COMPOUNDS” (Bantam Pharmaceutical, LLC, priority 2018, published 2021).
Read-outs that look alike come from different tables or passages of the source.

Tested on: 407 cancer cell lines
Test: Cell viability of cancer cell lines (IC50), CellTiter-Glo Viability Assay, 96 h
Type: cell-based
Details: for IC50: read-out: Absolute IC50
Experimental: Viability was determined by using the 50% inhibitory concentration (IC50) as determined with the CellTiter-Glo® Viability Assay (Promega).
Experiments were initiated by first thawing and equilibrating the CellTiter-Glo® Buffer to room temperature. The lyophilized CellTiter-Glo® Substrate was also equilibrated to room temperature. The lyophilized substrate was reconstituted with the CellTiter-Glo® buffer to form the CellTiter-Glo® Reagent.
Cells were harvested during the logarithmic growth period, counted, and the cell concentration adjusted to 4.44×10^4 cells/mL using culture medium.
Cells were allowed to grow overnight and the following day, the TO reading was obtained by adding 10 μL culture medium to each well of Plate A. The plate was allowed to equilibrate at room temperature for thirty minutes, after which 50 μL CellTiter-Glo® reagent was added to each well. The contents were mixed for 5 min on an orbital shaker to induce cell lysis. Plates were incubated for 20 minutes to stabilize the luminescent signal and the TO luminescence recorded.
Test plate B was incubated for 96 h in the humidified incubator at 37° C. with 5% CO2.
Following the incubation, the plate was equilibrated at room temperature for thirty minutes. CellTiter-Glo® (50 μL) was added to each well of the plate and contents mixed for five minutes on an orbital shaker to induce cell lysis. The luminescent signal was allowed to stabilize at room temperature for 20 minutes and the luminescence recorded.
IC50 (EC50) was calculated using a dose-response curve, fitted using a nonlinear regression model with a sigmoidal dose response. Survival rate was calculated using the formula:
The Surviving rate (%)=(LumTest article−LumMedium control)/(LumNon-treated−LumMedium control)×100%.
Absolute IC50 (EC50) was calculated according to the dose-response curve generated by the statistical software (GraphPad Prism 5.0).

Cc1nn(-c2nc(-c3ccc(C(F)(F)F)cc3)c(SC(C)C)s2)c(C(=O)O)c1-c1cccc(F)c1 [Compound A197, 4-(3-fluorophenyl)-1-(5-(isopropylthio)-4-(4-(trifluoromethyl)phenyl)thiazol-2-yl)-3-methyl-1H-pyrazole-5-carboxylic acid]
IC50 (Homo sapiens, TT, 96 h, TT cells, 96 h): 2.07 µM
IC50 (Homo sapiens, Toledo, 96 h, Toledo cells, 96 h): 1.45 µM
IC50 (Homo sapiens, U2OS, 96 h, U-2 OS cells, 96 h): 16.8 µM
IC50 (Homo sapiens, U2932, 96 h, U-2932 cells, 96 h): 0.46 µM
IC50 (Homo sapiens, U-87 MG, 96 h, U-87 MG cells, 96 h): 24.9 µM
IC50 (Homo sapiens, U-251, 96 h, U251 cells, 96 h): 0.28 µM
IC50 (Homo sapiens, U-937, 96 h, U-937 cells, 96 h): 0.41 µM
IC50 (Homo sapiens, UACC-812, 96 h, UACC-812 cells, 96 h): > 30 µM
IC50 (Homo sapiens, UMUC3, 96 h, UM-UC-3 cells, 96 h): 0.93 µM
IC50 (Homo sapiens, UO-31, 96 h, UO.31 cells, 96 h): > 30 µM
IC50 (Homo sapiens, WM 266-4, 96 h, WM-266-4 cells, 96 h): > 30 µM
IC50 (Homo sapiens, WSU-NHL, 96 h, WSU-NHL cells, 96 h): 0.48 µM
IC50 (Homo sapiens, WSUDLCL2, 96 h, WSU-DLCL2 cells, 96 h): 0.68 µM
IC50 (Homo sapiens, Y79, 96 h, Y-79 cells, 96 h): > 30 µM
IC50 (Homo sapiens, Z-138, Z-138): 1.5 µM
IC50 (Homo sapiens, ZR-75-1, ZR-75-1): 7.81 µM
IC50 (Homo sapiens, ZR-75-30, 96 h): > 30 µM
% inhibition at top conc. (HuCCT1, 96 h): 51.19%
% inhibition at top conc. (Ishikawa, 96 h): 82.51%
IC50 (JAR): 0.67 µM
% inhibition at top conc. (JEG-3 cells, 96 h): 52.54%
IC50 (JHH1, 96 h, JHH-1 cells, 96 h): > 30 µM
IC50 (JHH7, 96 h, JHH-7 cells, 96 h): 0.66 µM
IC50 (JHH-4, 96 h, JHH-4 cells, 96 h): 1.5 µM
IC50 (JVM13, JVM-13): 0.39 µM
% inhibition at top conc. (KATO III, 96 h): 45.89%
IC50 (KPL4, KPL-4): 0.25 µM
IC50 (L-82, L-82): 3.78 µM
% inhibition at top conc. (LNCaP clone FGC, 96 h): 76.07%
IC50 (Li-7, Li-7): 0.85 µM
% inhibition at top conc. (MDA-MB-436, 96 h): 54.72%
% inhibition at top conc. (MKN1 cells, 96 h): 53.97%
% inhibition at top conc. (MKN45, 96 h): 14.51%
% inhibition at top conc. (MKN74 cells, 96 h): 52.90%
IC50 (MM.1R): 1.19 µM
IC50 (MOLM16, 96 h, MOLM-16 cells, 96 h): 0.35 µM
IC50 (MS751, 96 h, MS751 cells, 96 h): > 30 µM
IC50 (NAMALWA CSN/70): 0.49 µM
% inhibition at top conc. (NCI-H69 cells, 96 h): 21.37%
% inhibition at top conc. (NCI-H82, 96 h): 92.52%
% inhibition at top conc. (NCI-H146 cells, 96 h): 37.67%
% inhibition at top conc. (NCI-H209 cells, 96 h): 45.11%
% inhibition at top conc. (NCI-H292 cells, 96 h): 54.61%
IC50 (NCI-H322, 96 h, NCI-H322 cells, 96 h): 0.29 µM
% inhibition at top conc. (NCI-H358 cells, 96 h): 68.44%
% inhibition at top conc. (NCI-H446 cells, 96 h): 51.21%
% inhibition at top conc. (NCI-H460 cells, 96 h): 49.03%
% inhibition at top conc. (NCI-H520 cells, 96 h): 76.45%
% inhibition at top conc. (NCI-H526 cells, 96 h): 44.57%
% inhibition at top conc. (NCI-H727 cells, 96 h): 35.60%
IC50 (NCI-H820, 96 h, NCI-H820 cells, 96 h): 0.35 µM
% inhibition at top conc. (NCI-H820 cells, 96 h): 78.69%
% inhibition at top conc. (NCI-H1048 cells, 96 h): 66.49%
% inhibition at top conc. (NCI-H1155 cells, 96 h): 79.14%
% inhibition at top conc. (NCI-H1299 cells, 96 h): 83.01%
IC50 (NCI-H1435, NCI-H1435): 0.39 µM
IC50 (NCI-H1568, 96 h, NCI-H1568 cells, 96 h): 0.27 µM
% inhibition at top conc. (NCI-H1648 cells, 96 h): 57.33%
% inhibition at top conc. (NCI-H1651 cells, 96 h): 67.37%
IC50 (NCI-H1688, NCI-H1688): > 30 µM
% inhibition at top conc. (NCI-H1703 cells, 96 h): 73.10%
IC50 (NCI-H1781, 96 h, NCI-H1781 cells, 96 h): > 30 µM
% inhibition at top conc. (NCI-H1792 cells, 96 h): 68.85%
IC50 (NCI-H1915, 96 h, NCI-H1915 cells, 96 h): > 30 µM
% inhibition at top conc. (NCI-H1975 cells, 96 h): 25.02%
% inhibition at top conc. (NCI-H1993 cells, 96 h): 78.76%
% inhibition at top conc. (NCI-H2087 cells, 96 h): 50.14%
% inhibition at top conc. (NCI-H2170 cells, 96 h): 75.97%
% inhibition at top conc. (NCI-H2228 cells, 96 h): 54.12%
% inhibition at top conc. (NCI-N87, 96 h): 54.19%
IC50 (NK-92MI): 6.58 µM
IC50 (NOZ): 0.71 µM
% inhibition at top conc. (NUGC-3 cells, 96 h): 63.39%
% inhibition at top conc. (NUGC-4 cells, 96 h): 62.77%
IC50 (OCUG-1, OCUG-1): 1.25 µM
IC50 (OCUM1, 96 h, OCUM-1 cells, 96 h): > 30 µM
% inhibition at top conc. (OCUM-1 cells, 96 h): 19.71%
% inhibition at top conc. (OCUM-2D cells, 96 h): 65.33%
% inhibition at top conc. (OCUM-2M cells, 96 h): 66.13%
% inhibition at top conc. (OE19, 96 h): 53.21%
IC50 (OSC19, 96 h, OSC-19 cells, 96 h): > 30 µM
% inhibition at top conc. (OVCAR-3 cells, 96 h): 46.65%
% inhibition at top conc. (OVCAR-8 cells, 96 h): 75.04%
IC50 (OZ): > 30 µM
% inhibition at top conc. (PC-9 cells, 96 h): 52.79%
IC50 (PEER): 1.87 µM
IC50 (PL45, PL45): 1.19 µM
IC50 (RD-ES): > 30 µM
% inhibition at top conc. (RPMI-2650 cells, 96 h): 52.41%
% inhibition at top conc. (RT4 cells, 96 h): 49.68%
% inhibition at top conc. (SCC-4, 96 h): 26.22%
% inhibition at top conc. (SCH cells, 96 h): 53.08%
IC50 (SF763, SF-763): 0.76 µM
% inhibition at top conc. (SK-MEL-5, 96 h): 25.67%
% inhibition at top conc. (SK-MEL-28, 96 h): 13.20%
% inhibition at top conc. (SK-OV-3 cells, 96 h): 34.62%
IC50 (SNU620, 96 h, SNU-620 cells, 96 h): > 30 µM
IC50 (SNU668, 96 h, SNU-668 cells, 96 h): > 30 µM
% inhibition at top conc. (SNU-1 cells, 96 h): 74.67%
% inhibition at top conc. (SNU-5, 96 h): 54.08%
IC50 (SNU-81): > 30 µM
IC50 (SNU-216, 96 h, SNU-216 cells, 96 h): > 30 µM
IC50 (SNU-368): > 30 µM
IC50 (SNU-484, 96 h, SNU-484 cells, 96 h): > 30 µM
% inhibition at top conc. (SNU-484 cells, 96 h): 45.94%
IC50 (SNU-601, 96 h, SNU-601 cells, 96 h): 0.49 µM
% inhibition at top conc. (SNU-601 cells, 96 h): 67.28%
% inhibition at top conc. (SNU-638 cells, 96 h): 56.77%
% inhibition at top conc. (SNU-719 cells, 96 h): 32.64%
IC50 (SNU-739, SNU-739): 20.9 µM
% inhibition at top conc. (SNU-761 cells, 96 h): 59.03%
% inhibition at top conc. (SNU-2535 cells, 96 h): 46.87%
IC50 (SNU-C2A): 0.58 µM
IC50 (SW579, 96 h, SW579 cells, 96 h): > 30 µM
% inhibition at top conc. (SW684 cells, 96 h): 4.22%
% inhibition at top conc. (SW948 cells, 96 h): 46.17%
IC50 (SW1271, SW1271): > 30 µM
IC50 (U266B1): > 30 µM
% inhibition at top conc. (UACC-812 cells, 96 h): 20.05%
% inhibition at top conc. (YCC-1 cells, 96 h): 29.02%
% inhibition at top conc. (YCC-6 cells, 96 h): 56.86%
% inhibition at top conc. (YCC-10, 96 h): 38.86%
IC50 (YCC-11, 96 h, YCC-11 cells, 96 h): > 30 µM
% inhibition at top conc. (YCC-11 cells, 96 h): 48.65%
% inhibition at top conc. (ZR-75-30, 96 h): 10.01%
